In PubChem BioAssay AID1259407 (Chemical Carcinogenesis Research Information System (CCRIS), 2018) one finds mutagenic call data, which are given here for six molecules.

SMILES strings stand for the structures. Calls of active or inactive are those of the source. The rule behind the calls is not given here.

This data set relates to CCRIS mutagenicity, Ames/micronucleus/aberration tests. The experiment in a line: CCRIS mutagenicity studies.
The mark [1] stands for this setting: Test System: AMES SALMONELLA TYPHIMURIUM, Strain/Indicator: TA98, Metabolic Activation: NONE, Method: PREINCUBATION
Setting [2] is: Test System: AMES SALMONELLA TYPHIMURIUM, Strain/Indicator: TA98, Metabolic Activation: NONE, Method: STANDARD PLATE.
[3] abbreviates: Test System: AMES SALMONELLA TYPHIMURIUM, Strain/Indicator: TA98, Metabolic Activation: RAT, LIVER, S-9, AROCLOR 1254, Method: STANDARD PLATE.
[4] abbreviates: Test System: AMES SALMONELLA TYPHIMURIUM, Strain/Indicator: TA100, Metabolic Activation: NONE, Method: STANDARD PLATE.
The mark [5] stands for this setting: Test System: AMES SALMONELLA TYPHIMURIUM, Strain/Indicator: TA100, Metabolic Activation: RAT, LIVER, S-9, AROCLOR 1254, Method: STANDARD PLATE.
The mark [6] stands for this setting: Test System: AMES SALMONELLA TYPHIMURIUM, Strain/Indicator: TA1535, Metabolic Activation: NONE, Method: STANDARD PLATE.
[7] abbreviates: Test System: AMES SALMONELLA TYPHIMURIUM, Strain/Indicator: TA1535, Metabolic Activation: RAT, LIVER, S-9, AROCLOR 1254, Method: STANDARD PLATE.
Where [8] appears, read: Test System: AMES SALMONELLA TYPHIMURIUM, Strain/Indicator: TA1537, Metabolic Activation: NONE, Method: STANDARD PLATE.
The mark [9] stands for this setting: Test System: AMES SALMONELLA TYPHIMURIUM, Strain/Indicator: TA1537, Metabolic Activation: RAT, LIVER, S-9, AROCLOR 1254, Method: STANDARD PLATE.

On to `C=CC(=O)OCCN(C)C`, for which the mutagenic call is, setting by setting: (Test System: AMES SALMONELLA TYPHIMURIUM, Strain/Indicator: TA98, Metabolic Activation: HAMSTER, LIVER, S-9, AROCLOR 1254 (10%), Method: PREINCUBATION) “inactive; negative”; under setting [1], “inactive; negative”; (Test System: AMES SALMONELLA TYPHIMURIUM, Strain/Indicator: TA98, Metabolic Activation: RAT, LIVER, S-9, AROCLOR 1254 (10%), Method: PREINCUBATION) “inactive; negative”; (Test System: AMES SALMONELLA TYPHIMURIUM, Strain/Indicator: TA100, Metabolic Activation: HAMSTER, LIVER, S-9, AROCLOR 1254 (10%), Method: PREINCUBATION) “inactive; negative”; (Test System: AMES SALMONELLA TYPHIMURIUM, Strain/Indicator: TA100, Metabolic Activation: NONE, Method: PREINCUBATION) “inactive; negative”; (Test System: AMES SALMONELLA TYPHIMURIUM, Strain/Indicator: TA100, Metabolic Activation: RAT, LIVER, S-9, AROCLOR 1254 (10%), Method: PREINCUBATION) “inactive; negative”. Moreover, the mutagenic call is “inactive; negative” (Test System: AMES SALMONELLA TYPHIMURIUM, Strain/Indicator: TA1535, Metabolic Activation: HAMSTER, LIVER, S-9, AROCLOR 1254 (10%), Method: PREINCUBATION); “inactive; negative” (Test System: AMES SALMONELLA TYPHIMURIUM, Strain/Indicator: TA1535, Metabolic Activation: NONE, Method: PREINCUBATION); “inactive; negative” (Test System: AMES SALMONELLA TYPHIMURIUM, Strain/Indicator: TA1535, Metabolic Activation: RAT, LIVER, S-9, AROCLOR 1254 (10%), Method: PREINCUBATION); “inactive; negative” (Test System: AMES SALMONELLA TYPHIMURIUM, Strain/Indicator: TA1537, Metabolic Activation: HAMSTER, LIVER, S-9, AROCLOR 1254 (10%), Method: PREINCUBATION); “inactive; negative” (Test System: AMES SALMONELLA TYPHIMURIUM, Strain/Indicator: TA1537, Metabolic Activation: NONE, Method: PREINCUBATION); “inactive; negative” (Test System: AMES SALMONELLA TYPHIMURIUM, Strain/Indicator: TA1537, Metabolic Activation: RAT, LIVER, S-9, AROCLOR 1254 (10%), Method: PREINCUBATION).

On to `FC(F)(F)c1ccc(Cl)cc1`, for which the mutagenic call is “inactive; negative” (Test System: AMES SALMONELLA TYPHIMURIUM, Strain/Indicator: TA98, Metabolic Activation: HAMSTER, LIVER, S-9, AROCLOR 1254, Method: STANDARD PLATE); “inactive; negative” under setting [2]; “inactive; negative” under setting [3]; “inactive; negative” (Test System: AMES SALMONELLA TYPHIMURIUM, Strain/Indicator: TA100, Metabolic Activation: HAMSTER, LIVER, S-9, AROCLOR 1254, Method: STANDARD PLATE); “inactive; negative” under setting [4]; “inactive; negative” under setting [5]. Moreover, the mutagenic call was “inactive; negative” (Test System: AMES SALMONELLA TYPHIMURIUM, Strain/Indicator: TA1535, Metabolic Activation: HAMSTER, LIVER, S-9, AROCLOR 1254, Method: STANDARD PLATE); “inactive; negative” under setting [6]; “inactive; negative” under setting [7]; “inactive; negative” (Test System: AMES SALMONELLA TYPHIMURIUM, Strain/Indicator: TA1537, Metabolic Activation: HAMSTER, LIVER, S-9, AROCLOR 1254, Method: STANDARD PLATE); “inactive; negative” under setting [8]; “inactive; negative” under setting [9]. Moreover, the mutagenic call is “inactive; negative” (Test System: AMES SALMONELLA TYPHIMURIUM, Strain/Indicator: TA1538, Metabolic Activation: HAMSTER, LIVER, S-9, AROCLOR 1254, Method: STANDARD PLATE); “inactive; negative” (Test System: AMES SALMONELLA TYPHIMURIUM, Strain/Indicator: TA1538, Metabolic Activation: NONE, Method: STANDARD PLATE); “inactive; negative” (Test System: AMES SALMONELLA TYPHIMURIUM, Strain/Indicator: TA1538, Metabolic Activation: RAT, LIVER, S-9, AROCLOR 1254, Method: STANDARD PLATE); “inactive; negative. reevaluation of results: negative” (Test System: MOUSE LYMPHOMA, Strain/Indicator: L5178Y (TK+/TK-), Metabolic Activation: NONE, Method: SUSPENSION/PLATE); “inactive; negative. reevaluation of results: equivocal” (Test System: MOUSE LYMPHOMA, Strain/Indicator: L5178Y (TK+/TK-), Metabolic Activation: RAT, LIVER, S-9, AROCLOR 1254, Method: SUSPENSION/PLATE).

Take `Fc1cc(F)c2cccnc2c1`: the mutagenic call (Test System: AMES SALMONELLA TYPHIMURIUM, Strain/Indicator: TA100, Metabolic Activation: RAT LIVER S-9, PHENOBARBITAL AND 5,6-BENZOFLAVONE, Method: PREINCUBATION) was “active; positive”.

In the case of `[O-][N+](=Nc1ccc2c(c1)Cc1ccccc1-2)c1ccc2c(c1)Cc1ccccc1-2`, the mutagenic call is, setting by setting: under setting [2], “inactive; negative”; under setting [3], “inactive; negative”.

`CCOC(=O)C(C)=O`: the mutagenic call was “inactive; negative” under setting [2]; “inactive; negative” under setting [3]; “inactive; negative” under setting [4]; “inactive; negative” under setting [5]; “inactive; negative” under setting [6]; “inactive; negative” under setting [7]. Besides, the mutagenic call under setting [8] is “inactive; negative” and the mutagenic call under setting [9] was “inactive; negative”.

As for `O=[N+]([O-])c1cccc2nc3cccc([N+](=O)[O-])c3nc12`, the mutagenic call is “active; positive” (Test System: AMES SALMONELLA TYPHIMURIUM, Strain/Indicator: TA98(NR), Metabolic Activation: NONE, Method: PREINCUBATION) and “active; positive” under setting [1].
